The values below come from patent publication US11530216B2, “Deuterated colony stimulating factor-1 receptor (CSF-1R) inhibitors” (Genzyme Corporation, priority 2020, dated 2022).

Data set [1] has as its system MCP-1 production in BV2 murine microglial cells. Nature of the data set: MCP-1 ELISA, BV2 microglial cells after CSF-1 stimulation. The format is cell-based. The settings on record: Mus musculus, BV-2, 30 min pre-treatment, 100 ng/mL M-CSF 24 hours. On the procedure: Microglia cells were allowed to rest overnight at 37° C., 5% CO2. […] After stimulation, the culture supernatant was removed from each well and aliquoted into two different 96-well plates for subsequent ELISA assays.
(In general: In an ELISA, binding on a coated surface is turned into a signal by an enzyme label.)

The nature of data set [2]: Caco-2 efflux assay. The format is in vitro ADME. Particulars: human. On the procedure:
Caco-2 permeability and efflux assays were performed in cell-based permeability model using Caco-2/TC7 cells. For permeability assays, Caco-2/TC7 cells were seeded on to Millipore Millicell 96 and for efflux assays, 24-well plates were used. The plates with cells were ready to use between 21-25 days of culturing. Both permeability and efflux assays were performed using the TECAN automated liquid handling platform. For permeability assays, test compounds were prepared at 20 μM test concentrations in permeability assay buffer (10 mM HEPES in HBSS buffer, pH 6.5) containing 0.5% BSA. Basolateral permeability buffer (pH 7.4) contains 5% BSA. For efflux assays, test compounds were prepared at 1 μM test concentrations in permeability assay buffer (10 mM HEPES in HBSS buffer, pH 7.4) containing 0.5% BSA. For efflux assays, the basolateral permeability buffer (pH 7.4) contained 0.5% BSA. The permeability assay was initiated by adding 20 μM test solution to apical side of plate containing Caco-2/TC7 cells. In the efflux assay, 1 μM test compound was added to an apical compartment for apical to basolateral (A to B) permeability determination. For basolateral to apical (B to A) permeability determination, the test compound was added to the basolateral side. The plate was incubated for 90 min under constant shaking at 37° C. At the end of the incubation period, samples taken were analyzed using high pressure liquid chromatography with tandem mass spectrometry. For each assay, apparent permeability (Papp) and recovery was calculated from mass spectrometry data. For permeability assay, Papp values are reported as numbers×10^−07 cm/s. For efflux assays, the efflux ratio is calculated using Papp (basolateral to apical) to Papp (apical to basolateral), in addition to recovery values.
For orientation: Passage across Caco-2 layers is used to estimate intestinal permeability.

For data set [3], the target named is CYP3A4 (Homo sapiens (Human), UniProt P08684). Nature of the data set: CYP inhibition in human liver microsomes, CYP3A4. Type of data set: in vitro ADME. On the procedure:
(§1) The objective of this assay method was to determine the inhibitory potential of test articles, in vitro, against specific cytochrome P450 (CYP) enzymes, using human liver microsomes (HLMs). The test compounds were diluted from pure DMSO stocks to a final test concentration range of 10 μM-0.07 μM in a 0.5% DMSO solution. […] After incubation, the samples were extracted, and protein precipitated in acetonitrile containing 0.1% formic acid. The samples were centrifuged to remove excess protein, and were analyzed by LDTD/MS/MS to determine IC50 values. Key concentrations of substrates were as follows: CYP2D6 Substrate—Dextromethorphan at 10 μM. CYP3A4 Substrates—Testosterone at 60 μM, and Midazolam at 2 μM. Dextromethorphan and testosterone were incubated with the test compounds for 30 minutes each. Midazolam was incubated with the test compounds for 10 minutes.
For orientation: Liver microsomes are a subcellular fraction often used to study metabolism.

The target in data set [4] is CYP2D6 (Homo sapiens (Human), UniProt P10635). The data set can be described thus: CYP inhibition in human liver microsomes, CYP2D6. The format is in vitro ADME. The settings on record: dextromethorphan 10 μM, 30 min, read-out: CYP inhibition mean IC50 (INH) isoform: CYP2D6 Substrate: dextromethorphan. On the procedure:
as §1

Data set [5] is described as follows: Rat hepatocyte intrinsic clearance. Type of data set: in vitro ADME. The settings on record: 1 μM, 0.5 million cells/mL. On the procedure:
(§2) Incubations were performed in 0.5 million hepatocytes cells/mL at 1 μM concentration of test compound in duplicate with rat, human, dog, monkey, or mouse hepatocytes, and the concentration-time course of test compound depletion was determined after withdrawing samples from the incubation at assay time points followed by liquid chromatography with tandem mass spectrometry analysis. An organic solvent was used to terminate incubations.

A short description of data set [6]: Mouse hepatocyte intrinsic clearance. The format is in vitro ADME. Particulars: 1 μM, 0.5 million cells/mL. On the procedure:
as §2

The nature of data set [7]: Monkey hepatocyte intrinsic clearance. Particulars: 1 μM, 0.5 million cells/mL. Type of data set: in vitro ADME. On the procedure:
as §2

Data set [8] can be described thus: Human liver cytosol intrinsic clearance. The format is in vitro ADME. The settings on record: human, cytosol. On the procedure:
Incubations were performed in 1 mg/mL human liver cytosol with high aldehyde oxidase (AO)/xanthine oxidase (XO) activity or 2.5 mg/mL human liver S-9 fraction with high AO/XO activity at 1 μM concentration of test compound in duplicate, and the concentration-time course of test compound depletion was determined after withdrawing samples from the incubation at assay time points followed by liquid chromatography with tandem mass spectrometry analysis. An organic solvent was used to terminate incubations.
These available known AO substrates along with the test compounds were analyzed using three in vitro systems (pooled human liver cytosol, liver S-9 fractions and human hepatocytes isolated from livers perfused with HTK media). Scaled unbound intrinsic clearances were calculated for the test compounds/new chemical entities and were compared to the in vivo unbound intrinsic clearances of the known AO substrates.

Data set [9] in a line: Metabolite profiles in human cryopreserved hepatocytes in absence and presence of AO inhibitor hydralazine. The format is in vitro ADME. The settings on record: 2 hours; for % of Total (integrated MS peak areas), Human Hepatocytes: absence of hydralazine; for % of Total (integrated MS peak areas), Human Hepatocytes + Hydralazine: hydralazine 10 μM. On the procedure:
After study sampling, the remaining samples from triplicate incubations were combined and processed for the metabolite identification study.
To each sample was added equal amounts of ice-cold acetonitrile (v/v) and the samples were then vortex mixed. Following centrifugation at approximately 13,000 rpm for 10 minutes, the supernatants were concentrated under nitrogen flow at 35° C. until approximately 0.1-0.2 mL of extract remained. Prior to analysis, the remaining extract was centrifuged at approximately 13,000 rpm for 15 minutes. The supernatant was injected into LC/UV/MS for analysis.
Metabolite identification was performed on UPLC (Thermo Vanquish) coupled with UV (Thermo Vanquish) and mass spectrometry (MS) detection (Thermo Orbitrap ID-X).
The mass peak areas were used for metabolite profiling, due to low sample concentrations. […] Metabolites having a peak area that accounts for equal to or more than 0.1% of the toral integrated MS peaks areas are reported in Table 1 below.
The metabolites are characterized based on their accurate masses (tolerance ≤5 ppm), mass fragmentation patterns, and comparison with other in vitro studies.
After study sampling, the remaining samples from triplicate incubations were combined and processed for metabolite identification study.
To each sample was added equal amounts of ice-cold acetonitrile (v/v) and the samples were vortex mixed. Following centrifugation at approximately 13,000 rpm for 10 minutes, the supernatants was concentrated under nitrogen flow at 35° C. until approximately 0.1-0.2 mL of extract remained. Prior to analysis, the remaining extract was centrifuged at approximately 13,000 rpm for 15 minutes. The supernatant was injected into LC/UV/MS for analysis.
The mass peak areas are used for metabolite profiling, due to low sample concentrations. […] Metabolites having a peak area that accounts for equal to or more than 0.1% of the toral integrated MS peaks areas are reported in Table 2 below.
The metabolites are characterized based on their accurate masses (tolerance≤5 ppm), mass fragmentation patterns, and comparison with other in vitro studies.

[10] abbreviates: midazolam 2 μM, 10 min, read-out: CYP inhibition mean IC50 (INH) Isoform: CYP3A4 Substrate: midazolam.
[11] abbreviates: testosterone 60 μM, 30 min, read-out: CYP inhibition mean IC50 (INH) Isoform: CYP3A4 Substrate: testosterone.
The mark [12] stands for this setting: Human Liver Cytosol Intrinsic Clearance _1.
[13] abbreviates: Human Liver Cytosol Intrinsic Clearance _2.
The mark [14] stands for this setting: incubation of Compound 24, 1 μM.

Structures are written as SMILES. Read-outs that look alike come from different tables or passages of the source.

Usually IC50 stands for the point on the concentration scale where inhibition reaches its midpoint. What is called Papp A→B is the apparent permeability from the apical to the basolateral side of a cell layer. What is called Papp B→A is the apparent permeability from the basolateral to the apical side of a cell layer. In general, CLint scaled refers to the rate of metabolic loss divided by the concentration. One may read the microsomal CLint as a measure of how fast metabolising enzymes remove a compound, apart from limits set by blood flow.

Chain of CYP3A4 (P08684 whole entry): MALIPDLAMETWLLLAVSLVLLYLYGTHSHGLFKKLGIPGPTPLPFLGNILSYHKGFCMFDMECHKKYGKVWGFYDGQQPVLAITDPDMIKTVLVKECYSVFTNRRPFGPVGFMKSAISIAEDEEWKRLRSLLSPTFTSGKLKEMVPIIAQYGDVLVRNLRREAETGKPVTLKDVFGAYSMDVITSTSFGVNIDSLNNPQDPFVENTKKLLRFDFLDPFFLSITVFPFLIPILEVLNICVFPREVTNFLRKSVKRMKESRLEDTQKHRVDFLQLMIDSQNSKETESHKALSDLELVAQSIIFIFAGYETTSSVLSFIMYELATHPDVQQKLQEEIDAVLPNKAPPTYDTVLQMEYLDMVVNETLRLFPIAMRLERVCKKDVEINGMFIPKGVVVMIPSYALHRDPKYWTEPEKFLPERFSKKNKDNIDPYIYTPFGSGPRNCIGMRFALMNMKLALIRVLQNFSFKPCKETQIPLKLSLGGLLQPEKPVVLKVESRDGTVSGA
Chain of CYP2D6 (P10635 whole entry, canonical isoform): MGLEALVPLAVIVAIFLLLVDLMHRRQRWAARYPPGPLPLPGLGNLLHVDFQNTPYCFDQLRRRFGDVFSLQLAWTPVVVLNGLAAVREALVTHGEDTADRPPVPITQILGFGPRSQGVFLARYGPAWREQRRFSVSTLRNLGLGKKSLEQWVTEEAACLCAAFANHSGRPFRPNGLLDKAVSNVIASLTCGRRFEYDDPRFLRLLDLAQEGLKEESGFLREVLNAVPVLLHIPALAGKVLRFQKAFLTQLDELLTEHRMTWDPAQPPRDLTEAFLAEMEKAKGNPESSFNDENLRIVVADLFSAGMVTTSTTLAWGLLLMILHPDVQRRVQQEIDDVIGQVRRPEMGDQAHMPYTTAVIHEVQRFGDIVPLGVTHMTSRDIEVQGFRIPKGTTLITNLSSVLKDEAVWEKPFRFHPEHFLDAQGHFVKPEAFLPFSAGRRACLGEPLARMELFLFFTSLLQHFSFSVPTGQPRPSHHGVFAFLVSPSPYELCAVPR

With `[2H]c1nc2cccnc2n1Cc1cc(OC)c2c(c1)O[C@@H](C)[C@H](c1ccc(OC)nc1)O2` [Compound 6, 3-(((2S,3S)-8-methoxy-2-(6-methoxypyridin-3-yl)-3-methyl-2,3-dihydrobenzo[b][1,4]dioxin-6-yl)methyl)-3H-imidazo[4,5-b]pyridine-2-d], the concentration for half-maximal inhibition (IC50) in data set [1] is 0.0288 to 0.0365 µM; in data set [3] (setting [10]), greater than 10 µM; in data set [3] (setting [11]), greater than 10 µM; in data set [4], greater than 10 µM. Moreover, the Papp A→B at 90 min, 1 μM in [2] worked out at 13.5 ×10⁻⁶ cm/s. Also, in data set [2], the Papp B→A at 90 min, 1 μM came to 29.2 ×10⁻⁶ cm/s. The recovery at 90 min, 1 μM in data set [2] (read-out: Recovery A to B) is 88%; in data set [2] (read-out: Recovery B to A) it was 82.5%. Besides, the “Rat Hepatocyte Intrinsic Clearance” value in [5] worked out at 9.00 μL/min/10^7 cells. In [6], the “Mouse Hepatocyte Intrinsic Clearance” value turned out to be 6.63 μL/min/10^7 cells. Besides, in data set [7], the “Monkey Hepatocyte Intrinsic Clearance” value was determined as 27.2 μL/min/10^7 cells. The CLint scaled at 1 μM in data set [8] is 3.9 mL/min/kg. In addition, the intrinsic metabolic clearance (microsomal CLint) at 1 μM came out at 1.5 µL/min/mg in data set [8] (setting [12]) and 2.2 µL/min/mg in [8] (setting [13]). The “% of Total (integrated MS peak areas), Human Hepatocytes” value in data set [9] (incubation of Compound 6, 1 μM) is recorded as 87.1%. In addition, the “% of Total (integrated MS peak areas), Human Hepatocytes + Hydralazine” value in data set [9] (incubation of Compound 6, 1 μM) was 92.0%.

With `COc1ccc(C2Oc3c(OC)cc(Cn4cnc5cccnc54)cc3O[C@H]2C)cn1` (some centres unmarked) [Compound 24], the IC50 is 0.0288 to 0.0365 µM in [1], greater than 10 µM in [3] (setting [10]), greater than 10 µM in data set [3] (setting [11]) and greater than 10 µM in data set [4]. In addition, the Papp A→B at 90 min, 1 μM in data set [2] turned out to be 12.5 ×10⁻⁶ cm/s. Also, the Papp B→A at 90 min, 1 μM in [2] came out at 25.6 ×10⁻⁶ cm/s. Also, the values for the recovery at 90 min, 1 μM in data set [2] (read-out: Recovery A to B) and in [2] (read-out: Recovery B to A) were 93% and 94%, respectively. The “Rat Hepatocyte Intrinsic Clearance” value in data set [5] amounted to 8.72 μL/min/10^7 cells. Besides, the “Mouse Hepatocyte Intrinsic Clearance” value in data set [6] stood at 9.36 μL/min/10^7 cells. Moreover, in data set [7], the “Monkey Hepatocyte Intrinsic Clearance” value is greater than 92 μL/min/10^7 cells. In data set [8], the CLint scaled at 1 μM is 10.5 mL/min/kg. Further, the microsomal CLint at 1 μM in data set [8] (setting [12]) was 5.1 µL/min/mg; in [8] (setting [13]) it was 5 µL/min/mg. In data set [9] (setting [14]), the “% of Total (integrated MS peak areas), Human Hepatocytes” value is 72.2%. Further, in data set [9] (setting [14]), the “% of Total (integrated MS peak areas), Human Hepatocytes + Hydralazine” value is 90.9%.
